This is an account of results in patent US7312223B2, “Metabolite of xanthine Phosphodiesterase 5 inhibitor and derivatives thereof useful for treatment of erectile dysfunction” (Schering Corporation, priority 2003, dated 2007).

SMILES strings stand for the structures. pIC50: −log10 of the molar value. Entries after “also recorded” stand apart in the source; their conditions may differ.

Series [1] deals with T1, PDE 5 (Homo sapiens, UniProt O76074). Particulars: disclosed in U.S. Ser. No. 09/940,760; cited from earlier work.
Series [2] in a line: Incubation of Compound A with pooled human liver microsomes and NADPH-generating system. It counts as in vitro ADME. As to the method: (§1) Compound C was prepared via a biotransformation from Compound A. In vitro incubations of Compound A (1, 5 and 50 μM) were performed with pooled human liver microsomes and CYP3A4 SUPERSOMES®. This radiolabel allowed tracking of all the metabolites of Compound A. For this procedure, Compound A was synthesized by inserting a ^14C in the 4 position as indicated in the ring member numbering scheme below.
(§2) Incubation mixtures contained cytochrome P450 (1 nmol/mL for human liver microsomes or 0.2 nmol/mL for CYP3A4), β-NADP^+ (1 mM), glucose-6-phosphate (5 mM), glucose-6-phosphate dehydrogenase (1.5 units/mL) and 3 mM magnesium chloride in 0.5 mL of 50 mM potassium phosphate buffer (pH 7.4). Prior to the addition of drug, incubation mixtures were pre-incubated for 3 min at about 37° C. […] Boiled human liver microsomes and incubations without NADPH served as negative control. […]
(§3) Radiometric profiles of metabolites following 120 min incubation of Compound A (50 μM) with CYP3A4, Human Liver Microsomes, and Insect Microsomes, all with a NADPH-generating system, are shown in FIGS. 1, 2, and 3, respectively. In these figures, the y-axis reflects radioactivity of the eluted species and has units of counts per minute, while the x-axis reflects time of elution and has units of minutes. […] Mass-to-charge ratios are measured by mass spectrometry.
In general terms: Liver microsomes are vesicles of endoplasmic reticulum, rich in cytochrome P450 enzymes.

Another series has as its target T2, CYP3A4 (Homo sapiens, UniProt P08684).
T2 construct: purchased; host or cells: An insect cell host is inferred from the 'Insect Microsomes' control
Kind of series: Incubation of Compound A with CYP3A4 SUPERSOMES and NADPH-generating system. It counts as in vitro ADME. As to the method:
as §1, §2, §3

Series [3] can be described thus: Incubation of Compound A with Control Insect Microsomes and NADPH-generating system. In kind it is in vitro ADME. To be noted: Compound A 50 μM, 120 min, Control Insect Microsomes, FIG. 3. The procedure:
Incubation mixtures contained cytochrome P450 (1 nmol/mL for human liver microsomes or 0.2 nmol/mL for CYP3A4), β-NADP^+ (1 mM), glucose-6-phosphate (5 mM), glucose-6-phosphate dehydrogenase (1.5 units/mL) and 3 mM magnesium chloride in 0.5 mL of 50 mM potassium phosphate buffer (pH 7.4). Prior to the addition of drug, incubation mixtures were pre-incubated for 3 min at about 37° C. […] Boiled human liver microsomes and incubations without NADPH served as negative control. A discussion of HPLC is provided in “HPLC in Pharmaceutical Analysis,” vol. I, G. Szepesi (1990). A discussion of mass spectrometry is provided in “Remington: The Science and Practice of Pharmacy,” 20th Ed., D. Limmer, ed., pp. 636-639 (2000).
Radiometric profiles of metabolites following 120 min incubation of Compound A (50 μM) with CYP3A4, Human Liver Microsomes, and Insect Microsomes, all with a NADPH-generating system, are shown in FIGS. 1, 2, and 3, respectively. In these figures, the y-axis reflects radioactivity of the eluted species and has units of counts per minute, while the x-axis reflects time of elution and has units of minutes. Each peak represents one or more compounds, and each of the more significant peaks is labeled with the mass-to-charge ratio value (m/z) of that compound. Mass-to-charge ratios are measured by mass spectrometry.

For series [4], the target named is T1, PDE 5. Briefly: PDE 5 inhibitory activity. In kind it is biochemical. Particulars: target not stated at the place; PDE 5 from context.
A short description of series [5]: Circulating metabolites after single oral administration of Compound A to humans. It counts as in vivo. To be noted: single administration of Compound A 100 mg PO.

T2 sequence (P08684 whole entry): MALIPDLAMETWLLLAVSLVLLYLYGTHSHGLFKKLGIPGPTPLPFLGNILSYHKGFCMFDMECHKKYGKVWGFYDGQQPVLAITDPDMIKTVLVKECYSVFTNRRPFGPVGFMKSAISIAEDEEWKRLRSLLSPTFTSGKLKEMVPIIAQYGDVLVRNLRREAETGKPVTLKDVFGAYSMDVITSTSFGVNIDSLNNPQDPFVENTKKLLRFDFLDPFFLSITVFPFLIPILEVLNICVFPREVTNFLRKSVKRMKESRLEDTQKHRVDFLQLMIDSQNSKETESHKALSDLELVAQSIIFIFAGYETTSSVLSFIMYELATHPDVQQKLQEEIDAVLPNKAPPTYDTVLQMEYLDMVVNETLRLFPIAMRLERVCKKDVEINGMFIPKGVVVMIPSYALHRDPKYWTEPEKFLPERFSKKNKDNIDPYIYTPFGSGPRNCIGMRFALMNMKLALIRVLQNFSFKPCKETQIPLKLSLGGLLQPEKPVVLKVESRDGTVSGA

Take `CCn1c(=O)c2c(nc(N[C@@H]3CCC[C@H]3O)n2Cc2ccc(OC)c(Br)c2)n(CCO)c1=O` [Compound A]: at PDE 5 [1], the “PDE 5 inhibitory activity” value was “having PDE 5 inhibitory activity”. Further, in series [2] (1, 5 and 50 μM, human liver microsomes 1 nmol/mL, NADPH-generating system), the extent of metabolism result is on record as “metabolized extensively”. In addition, at CYP3A4 (50 μM Compound A, cDNA-expressed CYP3A4), the “activity with respect to the formation of Compound C” value is listed as “exhibited the greatest activity”. Besides, in series [3], the metabolite formation entry was “no major metabolite formation was observed”.

Turning to `CCn1c(=O)c2c(nc(N)n2Cc2ccc(OC)c(Br)c2)n(CCO)c1=O` [Compound C, 8-Amino-7-[(3-Bromo-4-Methoxyphenyl)Methyl]-1-Ethyl-3,7-Dihydro-3-(2-Hydroxyethyl)-1H-Purine-2,6-Dione], at PDE 5 [4], the pIC50 was 7.15. Moreover, the “metabolite formed from Compound A (radiometric profile)” value in series [2] (Compound A 50 μM, 120 min, Human Liver Microsomes, FIG. 2) is recorded as “significant metabolite”; at CYP3A4 (Compound A 50 μM, 120 min, CYP3A4, FIG. 1), “significant metabolite”. In addition, the “circulating metabolite in human” value in series [5] was “one of the major circulating metabolites; also recorded: prominent circulating metabolite”.

By pIC50 is commonly meant the IC50 on a negative log10 scale, so that one unit is a factor of ten. High values mean a small IC50, low ones a large IC50.
